Measurements as given in BindingDB's records for patent US9669095 (Enanta Pharmaceuticals, 2017).

target: Genome polyprotein (Hepatitis C virus genotype 1a (isolate H77), UniProt P27958); assay: HCV Replicon Assay Luciferase; conditions: 37 °C
Experimental: Briefly, replicon cells are seeded at 7,000 cells per well in 90 ul DMEM (without phenol red, Invitrogen Cat. #31053-036) per well with 10% FCS, 1% non-essential amino acids, 1% of Glutamax and 1% of 100 penicillin/streptomycin and incubated overnight at 37° C., 5% CO2, 100% relative humidity. 16-20 h after seeding cells, test compounds previously solubilized and titrated in dimethyl sulfoxide ( DMSO") from each X plate and Y plate are diluted 1:100 in DMEM (without phenol red, Invitrogen Cat. #31053-036) with 10% FCS, 1% non-essential amino acids, 1% of Glutamax and 1% of 100 penicillin/streptomycin and added directly to the 96-well plate containing cells and growth medium at a 1:10 dilution for a final dilution of compound and DMSO of 1:1000 ([…]). Drug treated cells are incubated at 37° C., 5% CO2, 100% relative humidity for 72 hours before performing a luciferase assay using 100 ul per well BriteLite Plus (Perkin Elmer) according to the manufacturer's instructions. Data analysis utilizes the method published by Prichard and Shipman (Antiviral Research, 1990. 14:181-205). Using this method, the combination data are analyzed for antagonistic, additive, or synergistic combination effects across the entire combination surface created by the diluted compounds in combination.

Genome polyprotein, sequence (P27958 whole entry): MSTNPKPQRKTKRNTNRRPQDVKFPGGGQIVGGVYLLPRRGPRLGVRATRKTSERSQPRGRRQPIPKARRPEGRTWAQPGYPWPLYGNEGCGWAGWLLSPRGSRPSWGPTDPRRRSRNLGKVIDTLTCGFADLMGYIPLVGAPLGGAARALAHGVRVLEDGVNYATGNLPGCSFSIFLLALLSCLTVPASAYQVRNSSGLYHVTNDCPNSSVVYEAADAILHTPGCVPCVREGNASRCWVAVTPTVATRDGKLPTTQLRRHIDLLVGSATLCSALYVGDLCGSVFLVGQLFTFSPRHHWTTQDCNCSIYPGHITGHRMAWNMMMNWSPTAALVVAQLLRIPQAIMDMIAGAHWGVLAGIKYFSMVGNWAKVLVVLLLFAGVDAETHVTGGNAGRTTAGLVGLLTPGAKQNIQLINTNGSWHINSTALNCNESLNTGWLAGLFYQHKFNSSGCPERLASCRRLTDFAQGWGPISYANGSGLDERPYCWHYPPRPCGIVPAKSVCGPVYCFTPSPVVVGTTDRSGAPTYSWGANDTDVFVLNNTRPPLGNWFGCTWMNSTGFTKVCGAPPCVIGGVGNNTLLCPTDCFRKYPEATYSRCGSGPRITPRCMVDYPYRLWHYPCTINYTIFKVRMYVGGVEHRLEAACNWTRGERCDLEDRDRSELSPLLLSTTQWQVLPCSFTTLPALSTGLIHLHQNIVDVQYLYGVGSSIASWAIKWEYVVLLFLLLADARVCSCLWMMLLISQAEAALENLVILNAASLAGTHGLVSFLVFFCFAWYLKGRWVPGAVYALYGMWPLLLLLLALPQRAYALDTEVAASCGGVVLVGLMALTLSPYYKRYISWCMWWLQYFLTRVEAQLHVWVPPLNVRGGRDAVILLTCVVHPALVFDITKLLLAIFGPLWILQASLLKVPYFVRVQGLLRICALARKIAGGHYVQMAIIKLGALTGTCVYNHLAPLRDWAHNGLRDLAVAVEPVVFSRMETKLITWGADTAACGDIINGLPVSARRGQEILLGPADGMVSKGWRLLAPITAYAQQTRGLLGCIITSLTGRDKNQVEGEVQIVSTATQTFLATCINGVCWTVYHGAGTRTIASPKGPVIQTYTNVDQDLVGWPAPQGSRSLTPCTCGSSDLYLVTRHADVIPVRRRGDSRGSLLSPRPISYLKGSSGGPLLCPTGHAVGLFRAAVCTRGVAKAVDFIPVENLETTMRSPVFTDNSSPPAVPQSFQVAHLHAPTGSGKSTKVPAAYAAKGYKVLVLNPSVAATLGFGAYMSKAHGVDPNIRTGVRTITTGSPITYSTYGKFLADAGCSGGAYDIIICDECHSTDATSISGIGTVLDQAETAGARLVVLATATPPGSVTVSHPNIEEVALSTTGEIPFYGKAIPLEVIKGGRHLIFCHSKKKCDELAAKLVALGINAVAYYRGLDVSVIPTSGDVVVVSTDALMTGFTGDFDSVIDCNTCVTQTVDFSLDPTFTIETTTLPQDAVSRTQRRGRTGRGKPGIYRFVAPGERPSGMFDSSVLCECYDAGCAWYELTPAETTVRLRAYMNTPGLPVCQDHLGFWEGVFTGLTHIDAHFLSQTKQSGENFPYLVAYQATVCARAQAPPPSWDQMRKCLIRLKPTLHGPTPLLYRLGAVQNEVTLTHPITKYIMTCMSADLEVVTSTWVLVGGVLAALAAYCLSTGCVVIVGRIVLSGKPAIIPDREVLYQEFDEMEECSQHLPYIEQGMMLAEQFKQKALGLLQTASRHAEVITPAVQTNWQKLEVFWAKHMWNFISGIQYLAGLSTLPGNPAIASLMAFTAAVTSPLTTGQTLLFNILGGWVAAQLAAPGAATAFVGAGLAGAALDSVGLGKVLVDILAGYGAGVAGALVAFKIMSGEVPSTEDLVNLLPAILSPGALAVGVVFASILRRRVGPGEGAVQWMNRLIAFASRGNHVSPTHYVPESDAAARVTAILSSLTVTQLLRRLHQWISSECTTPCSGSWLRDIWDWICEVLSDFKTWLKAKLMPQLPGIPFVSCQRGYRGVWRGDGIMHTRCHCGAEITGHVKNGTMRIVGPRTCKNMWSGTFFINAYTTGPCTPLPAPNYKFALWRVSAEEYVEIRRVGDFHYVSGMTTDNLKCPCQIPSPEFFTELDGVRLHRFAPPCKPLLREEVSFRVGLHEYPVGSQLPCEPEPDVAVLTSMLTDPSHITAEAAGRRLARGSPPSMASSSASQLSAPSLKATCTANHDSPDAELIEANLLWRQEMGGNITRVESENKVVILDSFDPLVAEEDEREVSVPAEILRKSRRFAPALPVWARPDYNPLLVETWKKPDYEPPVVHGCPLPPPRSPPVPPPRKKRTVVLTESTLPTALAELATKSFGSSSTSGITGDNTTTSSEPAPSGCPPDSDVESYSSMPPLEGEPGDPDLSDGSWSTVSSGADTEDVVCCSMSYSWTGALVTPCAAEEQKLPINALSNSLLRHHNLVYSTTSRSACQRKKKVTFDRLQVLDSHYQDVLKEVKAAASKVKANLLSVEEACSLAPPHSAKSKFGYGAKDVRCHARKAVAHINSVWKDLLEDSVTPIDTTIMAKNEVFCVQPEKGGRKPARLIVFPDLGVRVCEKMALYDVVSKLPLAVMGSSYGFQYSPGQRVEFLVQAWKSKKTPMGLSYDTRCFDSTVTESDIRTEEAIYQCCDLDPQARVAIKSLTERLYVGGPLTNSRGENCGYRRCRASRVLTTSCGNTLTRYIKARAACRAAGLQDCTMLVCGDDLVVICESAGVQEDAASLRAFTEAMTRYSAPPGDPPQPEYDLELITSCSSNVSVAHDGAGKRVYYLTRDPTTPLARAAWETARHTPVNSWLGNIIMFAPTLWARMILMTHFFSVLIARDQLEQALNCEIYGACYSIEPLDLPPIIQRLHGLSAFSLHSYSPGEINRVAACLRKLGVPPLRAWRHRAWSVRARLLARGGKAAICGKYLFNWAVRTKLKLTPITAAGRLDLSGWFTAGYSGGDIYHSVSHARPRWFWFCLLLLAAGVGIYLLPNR

Structure (SMILES) | EC50
C/C=C/C[C@@H](C)C(=O)[C@@H]1NC(=O)[C@H](C(C)C)N(C)C(=O)[C@H](CC(C)C)N(C)C(=O)[C@H](CC(C)C)N(C)C(=O)[C@@H](C)NC(=O)[C@H](C)NC(=O)[C@H](CC(C)C)N(C)C(=O)[C@H](C(C)C)NC(=O)[C@H](C(C)(C)CNC)N(C)C(=O)[C@@H](C)N(C)C(=O)[C@H](CC)NC1=O [US9669095, 1] | in the range around 0.055 µM
CC[C@@H]1NC(=O)[C@H](C(=O)[C@H](C)CCCCCN2CCOCC2)NC(=O)[C@@H](C(C)C)N(C)C(=O)[C@H](CC(C)C)N(C)C(=O)[C@H](CC(C)C)N(C)C(=O)[C@@H](C)NC(=O)[C@H](C)NC(=O)[C@@H](CC(C)C)N(C)C(=O)[C@H](C(C)C)NC(=O)[C@H](C(C)(C)CN(C)C(=O)OC)N(C)C(=O)[C@@H](C)N(C)C1=O [US9669095, 6] | in the range around 0.055 µM
CCCC[C@@H](C)C(=O)[C@@H]1NC(=O)[C@H](C(C)C)N(C)C(=O)[C@H](CC(C)C)N(C)C(=O)[C@H](CC(C)C)N(C)C(=O)[C@@H](C)NC(=O)[C@H](C)NC(=O)[C@H](CC(C)C)N(C)C(=O)[C@H](C(C)C)NC(=O)[C@H](C(C)(C)COC(=O)NC)N(C)C(=O)[C@@H](C)N(C)C(=O)[C@H](CC)NC1=O [US9669095, 3] | in the range around 0.055 µM
CCCC[C@@H](C)C(=O)[C@@H]1NC(=O)[C@H](C(C)C)N(C)C(=O)[C@H](CC(C)C)N(C)C(=O)[C@H](CC(C)C)N(C)C(=O)[C@@H](C)NC(=O)[C@H](C)NC(=O)[C@H](CC(C)C)N(C)C(=O)[C@H](C(C)C)NC(=O)[C@H](C(C)(C)CO)N(C)C(=O)[C@@H](C)N(C)C(=O)[C@H](CC)NC1=O [US9669095, 2] | in the range around 0.055 µM
C/C=C/C[C@@H](C)C(=O)[C@@H]1NC(=O)[C@H](C(C)C)N(C)C(=O)[C@H](CC(C)C)N(C)C(=O)[C@H](CC(C)C)N(C)C(=O)[C@@H](C)NC(=O)[C@H](C)NC(=O)[C@H](CC(C)C)N(C)C(=O)[C@H](C(C)C)NC(=O)[C@H](C(C)(C)COC(=O)NC)N(C)C(=O)[C@@H](C)N(C)C(=O)[C@H](CC)NC1=O [US9669095, 5] | in the range around 0.055 µM
C/C=C/C[C@@H](C)C1ON2C(=O)[C@H](C(C)C)N(C)C(=O)[C@H](CC(C)C)N(C)C(=O)[C@@H](CC(C)C)N(C)C(=O)[C@@H](C)NC(=O)[C@H](C)NC(=O)[C@H](CC(C)C)N(C)C(=O)[C@H](C(C)C)NC(=O)[C@H](C(C)(C)COC(=O)NS(C)(=O)=O)N(C)C(=O)[C@@H](C)N(C)C(=O)[C@H](CC)NC(=O)[C@H]12 (stereo partly drawn) [US9669095, 11] | > 1 µM
C/C=C/C[C@@H](C)C1ON2C(=O)[C@H](C(C)C)N(C)C(=O)[C@H](CC(C)C)N(C)C(=O)[C@@H](CC(C)C)N(C)C(=O)[C@@H](C)NC(=O)[C@H](C)NC(=O)[C@H](CC(C)C)N(C)C(=O)[C@H](C(C)C)NC(=O)[C@H](C(C)(C)CN(C)C(=O)NS(C)(=O)=O)N(C)C(=O)[C@@H](C)N(C)C(=O)[C@H](CC)NC(=O)[C@H]12 (stereo partly drawn) [US9669095, 13] | in the range around 0.55 µM
CC[C@@H]1NC(=O)[C@H](C(=O)[C@H](C)CCCCCSc2nnnn2C)NC(=O)[C@H](C(C)C)N(C)C(=O)[C@H](CC(C)C)N(C)C(=O)[C@H](CC(C)C)N(C)C(=O)[C@@H](C)NC(=O)[C@H](C)NC(=O)[C@H](CC(C)C)N(C)C(=O)[C@H](C(C)C)NC(=O)[C@H](C(C)(C)CN(C)C(=O)OC)N(C)C(=O)[C@@H](C)N(C)C1=O [US9669095, 7] | in the range around 0.055 µM
C/C=C/C[C@@H](C)C1ON2C(=O)[C@H](C(C)C)N(C)C(=O)[C@H](CC(C)C)N(C)C(=O)[C@@H](CC(C)C)N(C)C(=O)[C@@H](C)NC(=O)[C@H](C)NC(=O)[C@H](CC(C)C)N(C)C(=O)[C@H](C(C)C)NC(=O)[C@H](C(C)(C)COC(=O)NS(=O)(=O)c3ccccc3)N(C)C(=O)[C@@H](C)N(C)C(=O)[C@H](CC)NC(=O)[C@H]12 (stereo partly drawn) [US9669095, 12] | in the range around 0.55 µM
CC[C@@H]1NC(=O)[C@H](C(=O)[C@H](C)CCCCCSc2nnnn2C)NC(=O)[C@@H](C(C)C)N(C)C(=O)[C@H](CC(C)C)N(C)C(=O)[C@H](CC(C)C)N(C)C(=O)[C@@H](C)NC(=O)[C@H](C)NC(=O)[C@@H](CC(C)C)N(C)C(=O)[C@H](C(C)C)NC(=O)[C@H](C(C)(C)CN(C)C(=O)[C@@H](NC(=O)OC)C(C)C)N(C)C(=O)[C@@H](C)N(C)C1=O [US9669095, 9] | in the range around 0.055 µM
CC[C@@H]1NC(=O)[C@H](C(=O)[C@H](C)CCCCCN2CCOCC2)NC(=O)[C@H](C(C)C)N(C)C(=O)[C@H](CC(C)C)N(C)C(=O)[C@H](CC(C)C)N(C)C(=O)[C@@H](C)NC(=O)[C@H](C)NC(=O)[C@H](CC(C)C)N(C)C(=O)[C@H](C(C)C)NC(=O)[C@H](C(C)(C)CN(C)C(=O)[C@@H](NC(=O)OC)C(C)C)N(C)C(=O)[C@@H](C)N(C)C1=O [US9669095, 8] | in the range around 0.055 µM
C/C=C/C[C@@H](C)C1ON2C(=O)[C@H](C(C)C)N(C)C(=O)[C@H](CC(C)C)N(C)C(=O)[C@@H](CC(C)C)N(C)C(=O)[C@@H](C)NC(=O)[C@H](C)NC(=O)[C@H](CC(C)C)N(C)C(=O)[C@H](C(C)C)NC(=O)[C@H](C(C)(C)CN(C)C(=O)NS(=O)(=O)c3ccccc3)N(C)C(=O)[C@@H](C)N(C)C(=O)[C@H](CC)NC(=O)[C@H]12 (stereo partly drawn) [US9669095, 14] | in the range around 0.55 µM
CCCC[C@@H](C)C(=O)[C@@H]1NC(=O)[C@H](C(C)C)N(C)C(=O)[C@H](CC(C)C)N(C)C(=O)[C@H](CC(C)C)N(C)C(=O)[C@@H](C)NC(=O)[C@H](C)NC(=O)[C@H](CC(C)C)N(C)C(=O)[C@H](C(C)C)NC(=O)[C@H](C(C)(C)COC(=O)N(C)C)N(C)C(=O)[C@@H](C)N(C)C(=O)[C@H](CC)NC1=O [US9669095, 4] | in the range around 0.055 µM
